One assay deals with HCT-116. In words: Cytotoxicity against human HCT116 cells after 72 hrs. Type of assay: functional, cell-based. The following applies: HCT-116, 72 h.
The test system of a further assay is HeLa. In words: Cytotoxicity against human HeLa cells after 72 hrs. Type of assay: functional, cell-based.

Data on 2 compounds can be found in ChEMBL document CHEMBL1152412, “Isolation, biomimetic synthesis, and cytotoxic activity of bis(pseudopterane) amines” (J Nat Prod, 2009).

The term IC50 denotes the point on the concentration scale where inhibition reaches its midpoint. High values mean weaker potency, low ones greater potency.

Consider `C=C(C)[C@H]1C2=CC(C(=O)OC)=C(C[C@H](C(=C)C)[C@@H](O)[C@@H](N[C@H]3C4=C[C@@H](OC4=O)[C@@H](C(=C)C)C4=CC(C(=O)OC)=C(C[C@H](C(=C)C)[C@H]3O)O4)C3=C[C@H]1OC3=O)O2` [BIS(GORGIACEROL)AMINE], for which the IC50 is 28 µM with HCT-116 and over 100 µM in the assay on HeLa.
In the same order, the values of `C=C(C)[C@H]1C2=CC(C(=O)OC)=C(C[C@H](C(=C)C)[C@H](O)/C=C3\C(=O)O[C@@H]1[C@@H]3N[C@H]1C3=C[C@@H](OC3=O)[C@@H](C(=C)C)C3=CC(C(=O)OC)=C(C[C@H](C(=C)C)[C@H]1O)O3)O2` [BIS(PSEUDOPTERANE)AMINE] are 4 µM and 42 µM.
